Columns and labels:
[1] = Solubility determination; conditions: for Sol6: pH 6; for Sol7: pH 7
Summary of the method: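 Sample: TFA-salt peptide at 10 mg/ml target in 0.1 M Na diphosphate, pH 6.4 or 7.0, shaken 2 h RT, filtered, diluted to 1 mg/ml.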

[2] = target: T1, Human Neuropeptide Y2 Receptor (Homo sapiens, UniProt P49146); assay: Radioligand binding competition assay (RLB); conditions: Table 3, 125I-PYY(1-36) competition; read-out: Ki
T1 construct: purchased CHEMICON HTS066M
T1 sequence (P49146 1-381): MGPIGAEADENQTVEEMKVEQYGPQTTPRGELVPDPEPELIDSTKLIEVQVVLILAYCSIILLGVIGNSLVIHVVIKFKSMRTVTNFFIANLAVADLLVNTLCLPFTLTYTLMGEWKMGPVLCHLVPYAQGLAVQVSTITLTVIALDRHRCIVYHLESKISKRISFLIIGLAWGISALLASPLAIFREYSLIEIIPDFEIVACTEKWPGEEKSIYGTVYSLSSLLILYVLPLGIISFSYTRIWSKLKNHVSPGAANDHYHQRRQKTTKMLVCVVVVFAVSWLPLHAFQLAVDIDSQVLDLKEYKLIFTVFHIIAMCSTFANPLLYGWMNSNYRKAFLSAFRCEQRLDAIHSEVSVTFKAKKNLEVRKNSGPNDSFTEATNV
Summary of the method: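 Receptor membranes, 0.5 μg/well; buffer 50 mM HEPES/5 mM MgCl2/1 mM CaCl2/0.2% ovalbumin, pH 7.4; 2 h RT, shaking. GF/C filtration, cold HEPES/500 mM NaCl wash, scintillation count. IC50 by nonlinear regression.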

Structure (SMILES)	Sol6 [1]	Sol7 [1]	Ki [2]
CC[C@H](C)[C@H](NC(=O)[C@H](CCC(=O)O)NC(=O)[C@H](CCC(=O)O)NC(=O)[C@@H]1CCCN1C(=O)[C@H](CC(C)C)NC(=O)[C@H](C)NC(=O)[C@H](CC(=O)O)NC(=O)[C@H](CCC(=O)O)NC(=O)[C@H](CCC(=O)O)NC(=O)[C@@H]1CCCN1C(=O)[C@H](CCCCNC(=O)CCCCCNC(=O)CC[C@H](NC(=O)CCCCCCCCCCCCCCCCC(=O)O)C(=O)O)NC(=O)[C@H](CCC(=O)O)NC(=O)[C@@H]1CCCN1C(=O)[C@H](C)NC(=O)CC(C)C)C(=O)N[C@@H](CCC(N)=O)C(=O)N[C@@H](CCCNC(=N)N)C(=O)N[C@@H](Cc1ccc(O)cc1)C(=O)N[C@@H](Cc1ccc(O)cc1)C(=O)N[C@H](C(=O)N[C@@H](CO)C(=O)N[C@@H](CC(C)C)C(=O)N[C@@H](CCCNC(=N)N)C(=O)N[C@@H](Cc1c[nH]cn1)C(=O)N[C@@H](Cc1ccc(O)cc1)C(=O)N[C@@H](Cc1ccc(O)cc1)C(=O)N[C@@H](CC(N)=O)C(=O)N[C@@H](Cc1c[nH]c2ccccc12)C(=O)N[C@@H](CC(C)C)C(=O)N[C@H](C(=O)N[C@@H](CCCNC(=N)N)C(=O)N[C@@H](CCC(N)=O)C(=O)N[C@@H](CCCNC(=N)N)C(=O)N[C@@H](Cc1ccc(O)cc1)C(N)=O)[C@@H](C)O)C(C)C [Compound 142, N{alpha-4}-(3-methylbutanoyl)-N{epsilon-7}-(6-[(4S)-4-carboxy-4-(17-carboxyheptadecanamido)butanamido]hexanoyl)-[4A,7K,9E,13L,17I,18Q,22V,28Y,30W,31L]-hPYY(4-36)]	>10.0 mg/mL	>10.0 mg/mL	3.97 nM
CC(C)CC(=O)N[C@@H](C)C(=O)N1CCC[C@H]1C(=O)N[C@@H](CCC(=O)O)C(=O)N[C@@H](CCCCNC(=O)CCCCCNC(=O)CC[C@H](NC(=O)CCCCCCCCCCCCCCCCC(=O)O)C(=O)O)C(=O)N1CCC[C@H]1C(=O)N[C@@H](CCC(=O)O)C(=O)N[C@@H](CCC(=O)O)C(=O)N[C@@H](CC(=O)O)C(=O)N[C@@H](C)C(=O)N[C@@H](CO)C(=O)N[C@@H](C)C(=O)N[C@@H](CCC(=O)O)C(=O)N[C@@H](CCC(=O)O)C(=O)N[C@@H](CC(C)C)C(=O)N[C@@H](CCC(N)=O)C(=O)N[C@@H](CCC(N)=O)C(=O)N[C@@H](Cc1ccc(O)cc1)C(=O)N[C@@H](Cc1ccc(O)cc1)C(=O)N[C@H](C(=O)N[C@@H](CO)C(=O)N[C@@H](CC(C)C)C(=O)N[C@@H](CCCNC(=N)N)C(=O)N[C@@H](Cc1c[nH]cn1)C(=O)N[C@@H](Cc1ccc(O)cc1)C(=O)N[C@@H](Cc1ccc(O)cc1)C(=O)N[C@@H](CC(N)=O)C(=O)N[C@@H](Cc1c[nH]c2ccccc12)C(=O)N[C@@H](CC(C)C)C(=O)N[C@H](C(=O)N[C@@H](CCCNC(=N)N)C(=O)N[C@@H](CCC(N)=O)C(=O)N[C@@H](CCCNC(=N)N)C(=O)N[C@@H](Cc1ccc(O)cc1)C(N)=O)[C@@H](C)O)C(C)C [Compound 34, N{alpha-4}-(3-methylbutanoyl)-N{epsilon-7}-(6-[(4S)-4-carboxy-4-(17-carboxyheptadecanamido)butanamido]hexanoyl)[4A,7K,9E,14A,18Q,19Q,22V,28Y,30W,31L]-hPYY(4-36)]	9.2 mg/mL	9.1 mg/mL	3.53 nM
CC(C)CC(=O)N[C@@H](C)C(=O)N1CCC[C@H]1C(=O)N[C@@H](CCC(=O)O)C(=O)N[C@@H](CCCCNC(=O)CCCCCNC(=O)CC[C@H](NC(=O)CCCCCCCCCCCCCCCCC(=O)O)C(=O)O)C(=O)N1CCC[C@H]1C(=O)N[C@@H](CCC(=O)O)C(=O)N[C@@H](CCC(=O)O)C(=O)N[C@@H](CC(=O)O)C(=O)N[C@@H](C)C(=O)N[C@H](C(=O)N1CCC[C@H]1C(=O)N[C@@H](CCC(=O)O)C(=O)N[C@@H](CCC(=O)O)C(=O)N[C@@H](CC(C)C)C(=O)N[C@@H](CCC(N)=O)C(=O)N[C@@H](CCCNC(=N)N)C(=O)N[C@@H](Cc1ccc(O)cc1)C(=O)N[C@@H](Cc1ccc(O)cc1)C(=O)N[C@H](C(=O)N[C@@H](CC(C)C)C(=O)N[C@@H](CC(C)C)C(=O)N[C@@H](CCCNC(=N)N)C(=O)N[C@@H](Cc1c[nH]cn1)C(=O)N[C@@H](Cc1ccc(O)cc1)C(=O)N[C@@H](Cc1ccc(O)cc1)C(=O)N[C@@H](CC(N)=O)C(=O)N[C@@H](Cc1c[nH]c2ccccc12)C(=O)N[C@@H](CC(C)C)C(=O)N[C@H](C(=O)N[C@@H](CCCNC(=N)N)C(=O)N[C@@H](CCC(N)=O)C(=O)N[C@@H](CCCNC(=N)N)C(=O)N[C@@H](Cc1ccc(O)cc1)C(N)=O)[C@@H](C)O)C(C)C)[C@@H](C)O [Compound 49, N{alpha-4}-(3-methylbutanoyl)-N{epsilon-7}-(6-[(4S)-4-carboxy-4-(17-carboxyheptadecanamido)butanamido]hexanoyl)-[4A,7K,9E,13T,18Q,22V,23L,28Y,30W,31L]-hPYY(4-36)]	>10.0 mg/mL	>10.0 mg/mL	11.6 nM
CC[C@H](C)[C@H](NC(=O)[C@H](Cc1ccc(O)cc1)NC(=O)[C@H](Cc1ccc(O)cc1)NC(=O)[C@H](CCCNC(=N)N)NC(=O)[C@H](CCC(N)=O)NC(=O)[C@H](CC(C)C)NC(=O)[C@H](CCC(=O)O)NC(=O)[C@H](CCC(=O)O)NC(=O)[C@@H]1CCCN1C(=O)[C@@H](NC(=O)[C@H](C)NC(=O)[C@H](CC(=O)O)NC(=O)[C@H](CCC(=O)O)NC(=O)[C@H](CCC(=O)O)NC(=O)[C@@H]1CCCN1C(=O)[C@H](CCCCNC(=O)CCCCCNC(=O)CC[C@H](NC(=O)CCCCCCCCCCCCCCCCC(=O)O)C(=O)O)NC(=O)[C@H](CCC(=O)O)NC(=O)[C@@H]1CCCN1C(=O)[C@H](C)NC(=O)CC(C)C)[C@@H](C)O)C(=O)N[C@@H](CO)C(=O)N[C@@H](CC(C)C)C(=O)N[C@@H](CCCNC(=N)N)C(=O)N[C@@H](Cc1c[nH]cn1)C(=O)N[C@@H](Cc1ccc(O)cc1)C(=O)N[C@@H](Cc1ccc(O)cc1)C(=O)N[C@@H](CC(N)=O)C(=O)N[C@@H](Cc1c[nH]c2ccccc12)C(=O)N[C@@H](CC(C)C)C(=O)N[C@H](C(=O)N[C@@H](CCCNC(=N)N)C(=O)N[C@@H](CCC(N)=O)C(=O)N[C@@H](CCCNC(=N)N)C(=O)N[C@@H](Cc1ccc(O)cc1)C(N)=O)[C@@H](C)O [Compound 66, N{alpha-4}-(3-methylbutanoyl)-N{epsilon-7}-(6-[(4S)-4-carboxy-4-(17-carboxyheptadecanamido)butanamido]hexanoyl)-[4A,7K,9E,13T,18Q,22I,28Y,30W,31L]-hPYY(4-36)]	9.2 mg/mL	9.2 mg/mL	2.33 nM
CC[C@H](C)[C@H](NC(=O)[C@H](CCC(=O)O)NC(=O)[C@H](CCC(=O)O)NC(=O)[C@@H]1CCCN1C(=O)[C@H](CCC(=O)O)NC(=O)[C@H](C)NC(=O)[C@H](C)NC(=O)[C@H](CCC(=O)O)NC(=O)[C@H](CCC(=O)O)NC(=O)[C@@H]1CCCN1C(=O)[C@H](CCCCNC(=O)CCCCCNC(=O)CC[C@H](NC(=O)CCCCCCCCCCCCCCCCC(=O)O)C(=O)O)NC(=O)[C@H](C)NC(=O)[C@@H]1CCCN1C(=O)[C@H](C)NC(=O)CC(C)C)C(=O)N[C@@H](CCC(N)=O)C(=O)N[C@@H](CCCNC(=N)N)C(=O)N[C@@H](Cc1ccc(O)cc1)C(=O)N[C@@H](Cc1ccc(O)cc1)C(=O)N[C@H](C(=O)N[C@@H](C)C(=O)N[C@@H](CC(C)C)C(=O)N[C@@H](CCCNC(=N)N)C(=O)N[C@@H](Cc1c[nH]cn1)C(=O)N[C@@H](Cc1ccc(O)cc1)C(=O)N[C@@H](Cc1ccc(O)cc1)C(=O)N[C@@H](CC(N)=O)C(=O)N[C@@H](Cc1c[nH]c2ccccc12)C(=O)N[C@@H](CC(C)C)C(=O)N[C@H](C(=O)N[C@@H](CCCNC(=N)N)C(=O)N[C@@H](CCC(N)=O)C(=O)N[C@@H](CCCNC(=N)N)C(=O)N[C@@H](Cc1ccc(O)cc1)C(N)=O)[C@@H](C)O)C(C)C [Compound 167, N{alpha-4}-(3-methylbutanoyl)-N{epsilon-7}-(6-[(4S)-4-carboxy-4-(17-carboxyheptadecanamido)butanamido]hexanoyl)-[4A,6A,7K,9E,11A,13E,17I,18Q,22V,23A,28Y,30W,31L]-hPYY(4-36)]	0.0 mg/mL	9.5 mg/mL	4.58 nM
CC(C)CC(=O)N[C@@H](C)C(=O)N1CCC[C@H]1C(=O)N[C@@H](CCC(=O)O)C(=O)N[C@@H](CCCCNC(=O)CCCCCNC(=O)CC[C@H](NC(=O)CCCCCCCCCCCCCCCCC(=O)O)C(=O)O)C(=O)N1CCC[C@H]1C(=O)N[C@@H](CCC(=O)O)C(=O)N[C@@H](CCC(=O)O)C(=O)N[C@@H](CC(=O)O)C(=O)N[C@@H](C)C(=O)N[C@H](C(=O)N[C@@H](CCC(N)=O)C(=O)N[C@@H](CCC(=O)O)C(=O)N[C@@H](CCC(=O)O)C(=O)N[C@@H](CC(C)C)C(=O)N[C@@H](CCC(N)=O)C(=O)N[C@@H](CCCNC(=N)N)C(=O)N[C@@H](Cc1ccc(O)cc1)C(=O)N[C@@H](Cc1ccc(O)cc1)C(=O)N[C@H](C(=O)N[C@@H](CO)C(=O)N[C@@H](CC(C)C)C(=O)N[C@@H](CCCNC(=N)N)C(=O)N[C@@H](Cc1c[nH]cn1)C(=O)N[C@@H](Cc1ccc(O)cc1)C(=O)N[C@@H](Cc1ccc(O)cc1)C(=O)N[C@@H](CC(N)=O)C(=O)N[C@@H](Cc1c[nH]c2ccccc12)C(=O)N[C@@H](CC(C)C)C(=O)N[C@H](C(=O)N[C@@H](CCCNC(=N)N)C(=O)N[C@@H](CCC(N)=O)C(=O)N[C@@H](CCCNC(=N)N)C(=O)N[C@@H](Cc1ccc(O)cc1)C(N)=O)[C@@H](C)O)C(C)C)[C@@H](C)O [Compound 105, N{alpha-4}-(3-methylbutanoyl)-N{epsilon-7}-(6-[(4S)-4-carboxy-4-(17-carboxyheptadecanamido)butanamido]hexanoyl)-[4A,7K,9E,13T,14Q,18Q,22V,28Y,30W,31L]-hPYY(4-36)]	>10.0 mg/mL	9.9 mg/mL	5.97 nM

Reference: US12391737B2, “Soluble NPY2 receptor agonists” (Boehringer Ingelheim International GmbH, priority 2020, dated 2025)
